Test system: Plasmodium berghei
Experiment: Luciferase/luciferin-expressing antifolate-resistant parasites were used to infect a culture of HepG2 cells that were pre-incubated with compounds. Infected hepatocytes emit light due to the luciferase reaction. Assay results are presented as the percent inhibition of light emission compared to control. […]
Type: functional
Conditions: sporozoite; for IC90: read-out: LUCIFERASE INFECTION ASSAY - IC90
[1] = read-out: LUCIFERASE INFECTION ASSAY - IC50

SMILES | IC90 | other results
CN(C)c1ccc(/C=C/c2ccc3ccccc3[n+]2C)cc1 | 2.35 µM | IC50 (HEPG2TOX_HILL_SLOPE 1.22, HEPG2TOX_R_SQUARED 0.944, PBLUC_HILL_SLOPE 2.39, PBLUC_R_SQUARED 0.798, read-out: LUCIFERASE INFECTION ASSAY - IC50): 0.935 µM
O=C(Nc1ccccc1Cc1ccccc1)c1ccccc1NS(=O)(=O)c1ccc(Cl)s1 | 3.48 µM | IC50 (FFLUC_HILL_SLOPE 7.32, FFLUC_R_SQUARED 0.665, HEPG2TOX_HILL_SLOPE 2.07, HEPG2TOX_R_SQUARED 0.984, PBLUC_HILL_SLOPE 54.5, PBLUC_R_SQUARED 0.445, read-out: LUCIFERASE INFECTION ASSAY - IC50): 3.34 µM
O=C1C=CC(=O)N1c1cccc(Cl)c1Cl | > 13.6 µM | IC50 (FFLUC_HILL_SLOPE 90.3, FFLUC_R_SQUARED 0.368, read-out: LUCIFERASE INFECTION ASSAY - IC50): > 13.6 µM
CN(CC(=O)N1CCN(C(c2ccc(F)cc2)c2ccc(F)cc2)CC1)C1=NS(=O)(=O)c2ccccc21 | > 10 µM | IC50 [1]: > 10 µM
COc1ccc(-c2ccc3ncc(-c4cccc(C(=O)NCCN(C)C)c4)n3n2)cc1OC | 0.309 µM | IC50 (HEPG2TOX_HILL_SLOPE 0.532, HEPG2TOX_R_SQUARED 0.94, PBLUC_HILL_SLOPE 3.74, PBLUC_R_SQUARED 0.793, read-out: LUCIFERASE INFECTION ASSAY - IC50): 0.172 µM
COc1cccc(C(c2c(-c3ccccc3)n(O)c3ccccc23)N2CCOCC2)c1 (stereo unspecified) | > 10 µM | IC50 (FFLUC_HILL_SLOPE 161, FFLUC_R_SQUARED 0.573, read-out: LUCIFERASE INFECTION ASSAY - IC50): > 10 µM
N#CC(Nc1cc(C(F)(F)F)cc(C(F)(F)F)c1)c1ccccc1 (stereo unspecified) | > 9.59 µM | IC50 [1]: 7.17 µM
Cc1cc(Cl)ccc1OCC(=O)c1c(-c2ccccc2)[nH]c2ccccc12 | > 10 µM | IC50 (PBLUC_HILL_SLOPE 2.14, 2.22, PBLUC_R_SQUARED 0.753, 0.563, read-out: LUCIFERASE INFECTION ASSAY - IC50): 6.03 µM
Cc1oc2c(c1C(=O)N1CCN(CCO)CC1)C(=O)c1ccccc1C2=O | > 10 µM | IC50 (HEPG2TOX_HILL_SLOPE 0.333, HEPG2TOX_R_SQUARED 0.261, PBLUC_HILL_SLOPE 0.243, PBLUC_R_SQUARED 0.141, read-out: LUCIFERASE INFECTION ASSAY - IC50): 8.15 µM
CC(C)(C(=O)NNC(=O)c1ccc2ccccc2n1)c1ccccc1 | 7.01 µM | IC50 (HEPG2TOX_HILL_SLOPE 11.1, HEPG2TOX_R_SQUARED 0.756, PBLUC_HILL_SLOPE 1.23E+03, PBLUC_R_SQUARED 0.165, read-out: LUCIFERASE INFECTION ASSAY - IC50): 7 µM
Cc1nnc(Oc2ccc(C#N)cc2Cl)c2ccccc12 | > 10 µM | IC50 (HEPG2TOX_HILL_SLOPE 10.4, HEPG2TOX_R_SQUARED 0.426, read-out: LUCIFERASE INFECTION ASSAY - IC50): > 10 µM
CC(C)(C)NCc1cc(Cl)ccc1OCc1ccccc1F | > 9.21 µM | IC50 (PBLUC_HILL_SLOPE 1.1, PBLUC_R_SQUARED 0.254, read-out: LUCIFERASE INFECTION ASSAY - IC50): 4.67 µM
CC(=O)c1ccc(NC(=O)c2cc(-c3cc(C)ccc3C)nc3ccccc23)cc1 | > 8.37 µM | IC50 (PBLUC_HILL_SLOPE 2.38, PBLUC_R_SQUARED 0.305, read-out: LUCIFERASE INFECTION ASSAY - IC50): 4.56 µM
COc1ccc(C(=O)C2CCN(C(=O)C3CC(=O)N(c4ccc(C)c(F)c4)C3)CC2)cc1 (stereo unspecified) | > 10 µM | IC50 (PBLUC_HILL_SLOPE 15.1, PBLUC_R_SQUARED 0.128, read-out: LUCIFERASE INFECTION ASSAY - IC50): 9.94 µM
Cc1nn(-c2ccccc2)c(N2CCCCC2)c1/C=N/Nc1cc(-c2ccccc2)c2ccccc2n1 | > 10 µM | IC50 (FFLUC_HILL_SLOPE 1.88, FFLUC_R_SQUARED 0.83, PBLUC_HILL_SLOPE 15.6, PBLUC_R_SQUARED 0.0616, read-out: LUCIFERASE INFECTION ASSAY - IC50): 8.96 µM
c1ccc2c(-n3ccnc3)nc(-c3ccsc3)nc2c1 | 7.73 µM | IC50 (HEPG2TOX_HILL_SLOPE 9, HEPG2TOX_R_SQUARED 0.711, PBLUC_HILL_SLOPE 3.68, 14.1, PBLUC_R_SQUARED 0.615, 0.129, read-out: LUCIFERASE INFECTION ASSAY - IC50): 4.26 µM
C=CCOc1ccccc1CN(c1ccc2c(c1)OCCO2)S(=O)(=O)c1cccs1 | > 10 µM | IC50 (FFLUC_HILL_SLOPE 11.5, FFLUC_R_SQUARED 0.0724, read-out: LUCIFERASE INFECTION ASSAY - IC50): > 10 µM
COc1nc2c(c(-c3c(F)cccc3Cl)c1C#N)Cc1ccccc1-2 | > 9.41 µM | IC50 (HEPG2TOX_HILL_SLOPE 6.94, HEPG2TOX_R_SQUARED 0.218, PBLUC_HILL_SLOPE 33.2, PBLUC_R_SQUARED 0.233, read-out: LUCIFERASE INFECTION ASSAY - IC50): 9 µM
Clc1ccc(CN=C(Nc2ccccc2)NC2CCCCC2)cc1 | 9.45 µM | IC50 (PBLUC_HILL_SLOPE 18.9, PBLUC_R_SQUARED 0.472, read-out: LUCIFERASE INFECTION ASSAY - IC50): 8.42 µM

SMILES | IC90 | other results
CCn1cc(C(=O)OC)c(=O)c2cc(C(F)(F)F)ccc21 | > 11 µM | IC50 (PBLUC_HILL_SLOPE 2.56, PBLUC_R_SQUARED 0.477, read-out: LUCIFERASE INFECTION ASSAY - IC50): 5.72 µM
Cc1nnsc1C(=O)Nc1cc(C(F)(F)F)cc(C(F)(F)F)c1 | 1.4 µM | IC50 (HEPG2TOX_HILL_SLOPE 1.48, HEPG2TOX_R_SQUARED 0.897, PBLUC_HILL_SLOPE 8.57, PBLUC_R_SQUARED 0.681, read-out: LUCIFERASE INFECTION ASSAY - IC50): 1.08 µM
COc1c(Cl)cc(Cl)c(OC)c1C(=O)NC(=O)Nc1cc(C(F)(F)F)cc(C(F)(F)F)c1 | 2.23 µM | IC50 [1]: 2.06 µM
Nn1c(Cc2ccccc2F)nnc1SCC(=O)NCc1ccc2c(c1)OCO2 | > 10 µM | IC50 [1]: > 10 µM
CC(C)Oc1ccc(S(=O)(=O)N2CCOCC2)cc1NC(=O)c1cc(-c2ccccc2)n[nH]1 | 4.44 µM | IC50 (HEPG2TOX_HILL_SLOPE 13.1, HEPG2TOX_R_SQUARED 0.378, PBLUC_HILL_SLOPE 12.6, PBLUC_R_SQUARED 0.276, read-out: LUCIFERASE INFECTION ASSAY - IC50): 3.73 µM
CNc1nc2cnc(Nc3cccc(Cl)c3)cc2n1Cc1ccco1 | > 10 µM | IC50 (HEPG2TOX_HILL_SLOPE 1.66, HEPG2TOX_R_SQUARED 0.976, PBLUC_HILL_SLOPE 2.05, PBLUC_R_SQUARED 0.683, read-out: LUCIFERASE INFECTION ASSAY - IC50): 3.63 µM
O=C(Nc1ccc(Cl)cc1)Nc1cc(Cl)sc1Cl | 3.79 µM | IC50 [1]: 3.09 µM
COc1ccc(-c2cnc3cnc(-c4cc(OC)cc(OC)c4)cn23)cc1 | 3.63 µM | IC50 (HEPG2TOX_HILL_SLOPE 2.43, HEPG2TOX_R_SQUARED 0.949, PBLUC_HILL_SLOPE 13, PBLUC_R_SQUARED 0.663, read-out: LUCIFERASE INFECTION ASSAY - IC50): 3.06 µM
CC(C)Cn1c(SCC(=O)Nc2ccccc2C(=O)OC2CC(C)CCC2C(C)C)nnc1-c1cccc(S(=O)(=O)N2CCOCC2)c1 (stereo unspecified) | > 10 µM | IC50 (PBLUC_HILL_SLOPE 3.05, PBLUC_R_SQUARED 0.72, read-out: LUCIFERASE INFECTION ASSAY - IC50): 5.79 µM
Cc1csc(Sc2ncnc3c2cnn3C)n1 | > 2 µM | IC50 [1]: > 2 µM
Cc1ccc(C)c(Nc2sc(-c3cc(=O)oc4c(C)c(C)ccc34)c(N)c2-c2nc3ccccc3s2)c1 | 9.38 µM | IC50 (PBLUC_HILL_SLOPE 3.07, PBLUC_R_SQUARED 0.45, read-out: LUCIFERASE INFECTION ASSAY - IC50): 4.59 µM
Cc1c(C)n(CCCO)c2ncn3nc(-c4ccc(F)cc4)nc3c12 | 5.99 µM | IC50 (FFLUC_HILL_SLOPE 1.57, FFLUC_R_SQUARED 0.582, PBLUC_HILL_SLOPE 0.753, PBLUC_R_SQUARED 0.936, read-out: LUCIFERASE INFECTION ASSAY - IC50): 0.324 µM
C/C(=N\NC(=S)Nc1cccc(Cl)c1C)c1cccc(C(F)(F)F)c1 | > 10 µM | IC50 (HEPG2TOX_HILL_SLOPE 2.50, 1.90, HEPG2TOX_R_SQUARED 0.489, 0.932, PBLUC_HILL_SLOPE 2.58, PBLUC_R_SQUARED 0.215, read-out: LUCIFERASE INFECTION ASSAY - IC50): 7.21 µM
O=C(N/N=C1/C(=O)c2cccc3cccc1c23)c1ccccc1-n1cccc1 | > 10 µM | IC50 (PBLUC_HILL_SLOPE 0.275, PBLUC_R_SQUARED 0.0663, read-out: LUCIFERASE INFECTION ASSAY - IC50): > 10 µM
CCN(CCNc1ncnc2sc(-c3ccccc3)cc12)c1cccc(C)c1 | 3.9 µM | IC50 (HEPG2TOX_HILL_SLOPE 2.04, HEPG2TOX_R_SQUARED 0.0176, PBLUC_HILL_SLOPE 12.8, PBLUC_R_SQUARED 0.373, read-out: LUCIFERASE INFECTION ASSAY - IC50): 3.29 µM
CC(C)CN1CCC1(C(=O)Nc1ccncc1)c1ccccc1 (stereo unspecified) | 6.57 µM | IC50 (HEPG2TOX_HILL_SLOPE 0.888, HEPG2TOX_R_SQUARED 0.951, PBLUC_HILL_SLOPE 1.36, PBLUC_R_SQUARED 0.753, read-out: LUCIFERASE INFECTION ASSAY - IC50): 1.31 µM
CCCn1c(N)c(N2CCCCC2)c(=O)n(Cc2nc(N)nc(Nc3ccc(C)cc3)n2)c1=O | 4.61 µM | IC50 [1]: 3.72 µM
O=C(N/N=C(\Cc1ncc[nH]1)c1ccccc1)c1ccncc1 | 3.77 µM | IC50 (HEPG2TOX_HILL_SLOPE 3.38, HEPG2TOX_R_SQUARED 0.998, PBLUC_HILL_SLOPE 17.1, PBLUC_R_SQUARED 0.54, read-out: LUCIFERASE INFECTION ASSAY - IC50): 3.31 µM
Cc1nn(-c2ccccc2)c(N2CCCC2)c1/C=N/O | > 10 µM | IC50 [1]: > 10 µM
